Article PMC8016666, “A novel combination therapy targeting ubiquitin-specific protease 5 in MYCN-driven neuroblastoma” (Oncogene, 2021)

Molecular target: T1, USP5 (Homo sapiens, UniProt P45974)
T1 construct: full-length
T1 sequence (P45974 2-858): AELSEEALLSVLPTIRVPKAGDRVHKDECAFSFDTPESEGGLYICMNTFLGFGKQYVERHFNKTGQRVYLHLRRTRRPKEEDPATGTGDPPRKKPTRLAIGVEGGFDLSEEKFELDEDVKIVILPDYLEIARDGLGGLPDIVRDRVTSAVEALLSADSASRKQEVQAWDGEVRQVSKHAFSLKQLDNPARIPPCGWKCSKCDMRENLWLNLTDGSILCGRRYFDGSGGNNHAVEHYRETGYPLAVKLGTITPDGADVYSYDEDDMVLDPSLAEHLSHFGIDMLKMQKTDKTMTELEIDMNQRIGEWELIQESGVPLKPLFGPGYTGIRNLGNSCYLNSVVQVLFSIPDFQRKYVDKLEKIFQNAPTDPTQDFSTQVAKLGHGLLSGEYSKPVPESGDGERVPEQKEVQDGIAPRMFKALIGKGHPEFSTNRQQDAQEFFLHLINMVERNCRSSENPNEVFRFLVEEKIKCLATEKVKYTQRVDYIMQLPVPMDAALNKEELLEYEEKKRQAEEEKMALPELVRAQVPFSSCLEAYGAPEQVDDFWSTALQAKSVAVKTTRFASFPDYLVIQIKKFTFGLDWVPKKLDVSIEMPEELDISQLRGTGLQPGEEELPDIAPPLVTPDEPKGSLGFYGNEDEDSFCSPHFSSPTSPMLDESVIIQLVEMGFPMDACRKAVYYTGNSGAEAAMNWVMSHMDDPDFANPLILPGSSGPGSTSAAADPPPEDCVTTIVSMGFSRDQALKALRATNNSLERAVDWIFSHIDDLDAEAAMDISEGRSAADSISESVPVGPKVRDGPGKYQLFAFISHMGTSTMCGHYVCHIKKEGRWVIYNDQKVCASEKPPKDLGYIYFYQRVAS
Experiment: microscale thermophoresis with purified labelled USP5
Assay type: binding

Kd: 2760 nM
SMILES: O=C(CCCCCCC(=O)Nc1ccccc1)NO [SAHA]
